The target in this test is estrogen receptor alpha (ESR1) (Homo sapiens, UniProt P03372). As to the kind of experiment: cell-based. As to conditions: for ER-alpha MCF7 HCS Sinf: MCF7 breast cancer cells, 4 hours, plateau of the maximal effect, DMSO and Fulvestrant define 0% and 100% changes in ESR1. As to the method:
Where more than one name is associated with a Formula I compound or intermediate, the chemical structure shall define the compound.
Cell plates were incubated at 37° C., for 4 hours. Fixation and permeabilization were carried out using a Biotek EL406 plate washer and dispenser as follows. […] Samples were incubated 30 minutes. Well contents was aspirated and 50 ul/well of Phosphate Buffered Saline (PBS) containing 0.5% w/v bovine serum albumen, 0.5% v/v Triton X-100 (Antibody Dilution Buffer) was added to each well. Samples were incubated for 30 minutes. Well contents were aspirated and washed 3 times with 100 ul/well of PBS. Immunofluorescence staining of estrogen receptor alpha (ESR1) was carried out using a Biotek EL406 plate washer and dispenser as follows. […] Samples were incubated for 2 hours at room temperature. Samples were washed 4 times with 100 ul/well of PBS. […] Samples were incubated for 2 hours at room temperature. Samples were washed 3 times with 100 ul/well of PBS using a Biotek EL406. Quantitative fluorescence imaging of ESR1 was carried out using a Cellomics Arrayscan V (Thermo). […] Channel 1 (DNA stain) was used to define the nuclear region (Circ). […] Data analysis was carried out using Genedata Screener Software, with DMSO and 5 nM Fulvestrant treated samples being used to define the 0% and 100% changes in ESR1. The “Robust Fit” method was used to define the inflexion point of curve (EC50) and the plateau of the maximal effect (Sin f).

Sequence of estrogen receptor alpha (ESR1) (P03372 whole entry): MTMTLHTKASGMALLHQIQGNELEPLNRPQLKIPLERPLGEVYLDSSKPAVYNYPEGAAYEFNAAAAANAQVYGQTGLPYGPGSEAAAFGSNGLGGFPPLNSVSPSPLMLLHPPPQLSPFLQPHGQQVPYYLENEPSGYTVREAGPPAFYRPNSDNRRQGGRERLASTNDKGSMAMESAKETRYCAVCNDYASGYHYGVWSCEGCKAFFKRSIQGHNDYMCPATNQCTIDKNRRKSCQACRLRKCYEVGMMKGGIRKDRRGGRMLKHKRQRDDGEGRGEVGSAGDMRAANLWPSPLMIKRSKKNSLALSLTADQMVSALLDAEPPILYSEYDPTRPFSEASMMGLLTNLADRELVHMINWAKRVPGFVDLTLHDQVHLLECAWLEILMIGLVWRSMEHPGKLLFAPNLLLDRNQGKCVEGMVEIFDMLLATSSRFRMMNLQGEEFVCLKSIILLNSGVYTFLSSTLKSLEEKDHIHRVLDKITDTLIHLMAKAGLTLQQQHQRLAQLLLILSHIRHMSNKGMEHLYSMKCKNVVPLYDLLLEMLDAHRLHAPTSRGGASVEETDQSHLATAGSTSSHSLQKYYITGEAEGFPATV

Consider `Cc1c(-c2ccc(O)cc2)n(Cc2ccc(OCCN3CC(CF)C3)cc2)c2cc(F)c(O)cc12` [Example 49, 6-fluoro-1-(4-(2-(3-(fluoromethyl)azetidin-1-yl)ethoxy)benzyl)-2-(4-hydroxyphenyl)-3-methyl-1H-indol-5-ol], for which the EC50 was determined as 0.187 nM and the “ER-alpha MCF7 HCS Sinf” value is −95.6%.
For the molecule `Cc1cc(-c2c(C)c3cc(O)ccc3n2Cc2ccc(OC[C@H](C)N3CC[C@@H](CF)C3)cc2)ccc1O` [Example 43, 1-[[4-[(2S)-2-[(3R)-3-(fluoromethyl)pyrrolidin-1-yl]propoxy]phenyl]methyl]-2-(4-hydroxy-3-methyl-phenyl)-3-methyl-indol-5-ol], a half-maximal effect (EC50) was put at 0.0179 nM and the “ER-alpha MCF7 HCS Sinf” value is recorded as −96.0%.
Take `Oc1cccc([C@@H]2Sc3c(ccc(O)c3F)O[C@@H]2c2ccc(OCCN3CC(CF)C3)cc2)c1` [Example 60, (2R,3S)-5-fluoro-2-(4-(2-(3-(fluoromethyl)azetidin-1-yl)ethoxy)phenyl)-3-(3-hydroxyphenyl)-2,3-dihydrobenzo[b][1,4]oxathiin-6-ol]: the EC50 turned out to be 15.8 nM and the “ER-alpha MCF7 HCS Sinf” value is reported as −91.9%.
For `CC/C(=C(\c1ccc(O)cc1)c1ccc(OCCN2CC(CF)C2)cc1)c1ccccc1` [Example 23] the same measures were 0.59 nM and −95%.
With `O=C(c1ccc(OCCN2CC(CF)C2)cc1)c1c(-c2ccc(O)cc2)sc2cc(O)ccc12` [Example 9, (4-(2-(3-(fluoromethyl)azetidin-1-yl)ethoxy)phenyl)(6-hydroxy-2-(4-hydroxyphenyl)benzo[b]thiophen-3-yl)methanone], the EC50 is 1.1 nM and the “ER-alpha MCF7 HCS Sinf” value is −97%.
For `Oc1ccc(-c2onc(-c3ccccc3Cl)c2-c2ccc(OCCN3CC[C@@H](CF)C3)cc2)cc1` [Example 15, (R)-4-(3-(2-Chlorophenyl)-4-(4-(2-(3-(fluoromethyl)pyrrolidin-1-yl)ethoxy)phenyl)isoxazol-5-yl)phenol], the EC50 was found to be 2.3 nM and the “ER-alpha MCF7 HCS Sinf” value is reported as −84%.
With `Cc1c(-c2ccc(O)cc2)n(Cc2ccc(OC[C@H](C)N3CC[C@@H](CF)C3)cc2)c2ccc(O)cc12` [Example 2, 1-(4-((S)-2-((R)-3-(Fluoromethyl)pyrrolidin-1-yl)propoxy)benzyl)-2-(4-hydroxyphenyl)-3-methyl-1H-indol-5-ol], the EC50 was found to be 1.6 nM and the “ER-alpha MCF7 HCS Sinf” value is recorded as −93%.
On to `CC/C(=C(/c1ccc(OCCN2CC(CF)C2)cc1)c1ccc2[nH]ncc2c1)c1ccccc1` [Example 25, (E)-5-(1-(4-(2-(3-(Fluoromethyl)azetidin-1-yl)ethoxy)phenyl)-2-phenylbut-1-en-1-yl)-1H-indazole], for which a half-maximal response (EC50) required 1.5 nM and the “ER-alpha MCF7 HCS Sinf” value is listed as −92%.
Consider `CC/C(=C(\c1ccccc1)c1ccc(OC[C@H](C)N2CC[C@@H](CF)C2)cc1)c1ccccc1` [Example 20, (R)-1-((S)-1-(4-((Z)-1,2-Diphenylbut-1-en-1-yl)phenoxy)propan-2-yl)-3-(fluoromethyl)pyrrolidine], for which the response was half-maximal at 24 nM (EC50) and the “ER-alpha MCF7 HCS Sinf” value is given as −73%.
As for `Oc1ccc(C(=C2CCCCC2)c2ccc(OCCN3CC(CF)C3)cc2)cc1` [Example 18, 4-(Cyclohexylidene-{4-[2-(3-fluoromethyl-azetidin-1-yl)-ethoxy]-phenyl}-methyl)-phenol], the response was half-maximal at 12 nM (EC50) and the “ER-alpha MCF7 HCS Sinf” value is on record as −89%.
For `CC/C(=C(/c1ccc(OCCN2CC(CF)C2)cc1)c1ccc2[nH]ncc2c1)c1ccc(F)cc1Cl` [Example 82, 5-[(E)-2-(2-chloro-4-fluoro-phenyl)-1-[4-[2-[3-(fluoromethyl)azetidin-1-yl]ethoxy]phenyl]but-1-enyl]-1H-indazole], the EC50 was 0.0225 nM and the “ER-alpha MCF7 HCS Sinf” value is −96.9%.
For the molecule `CS(=O)(=O)c1ccc(-c2ccc3cc(O)ccc3c2Oc2ccc(OCCN3CC[C@@H](CF)C3)cc2)cc1` [Example 8, (R)-5-(4-(2-(3-(Fluoromethyl)pyrrolidin-1-yl)ethoxy)phenoxy)-6-(4-(methylsulfonyl)phenyl)naphthalen-2-ol], the midpoint of the response, the EC50, lay at 0.27 nM and the “ER-alpha MCF7 HCS Sinf” value is on record as −95%.
For `Cc1c(-c2ccc(O)cc2)n(Cc2ccc(OCCN3CC(CF)C3)cc2)c2ccc(O)c(F)c12` [Example 48, 4-fluoro-1-[[4-[2-[3-(fluoromethyl)azetidin-1-yl]ethoxy]phenyl]methyl]-2-(4-hydroxyphenyl)-3-methyl-indol-5-ol], the midpoint of the response, the EC50, lay at 0.662 nM and the “ER-alpha MCF7 HCS Sinf” value is recorded as −92.8%.
`Cc1c(-c2ccc(F)cc2)n(Cc2ccc(OCCN3CC(CF)C3)cc2)c2ccc(O)cc12` [Example 3, 1-(4-(2-(3-(Fluoromethyl)azetidin-1-yl)ethoxy)benzyl)-2-(4-fluorophenyl)-3-methyl-1H-indol-5-ol]: a half-maximal response (EC50) required 5.5 nM and the “ER-alpha MCF7 HCS Sinf” value was −92%.
With `Oc1ccc2c(c1)CC[C@H](c1ccccc1)[C@@H]2c1ccc(OCCN2CC(CF)C2)cc1` (racemic) [Example 34, cis-5-(4-(2-(3-(Fluoromethyl)azetidin-1-yl)ethoxy)phenyl)-6-phenyl-5,6,7,8-tetrahydronaphthalen-2-ol], the EC50 turned out to be 0.016 nM and the “ER-alpha MCF7 HCS Sinf” value was −99.3%.
For the molecule `Cc1cc(-c2c(C)c3cc(O)ccc3n2Cc2ccc(OCCN3CC(CF)C3)cc2)ccc1O` [Example 41, 1-[[4-[2-[3-(fluoromethyl)azetidin-1-yl]ethoxy]phenyl]methyl]-2-(4-hydroxy-3-methyl-phenyl)-3-methyl-indol-5-ol], the EC50 was determined as 0.0518 nM and the “ER-alpha MCF7 HCS Sinf” value is −97.8%.
For `CCN(Cc1ccc(OCCN2CC(CF)C2)cc1)c1cc(OC)ccc1C1CCc2cc(O)ccc2C1` (centres unmarked) [Example 13, 6-(2-(Ethyl(4-(2-(3-(fluoromethyl)azetidin-1-yl)ethoxy)benzyl)amino)-4-methoxyphenyl)-5,6,7,8-tetrahydronaphthalen-2-ol], a half-maximal response (EC50) required 7.5 nM and the “ER-alpha MCF7 HCS Sinf” value is listed as −55%.
The corresponding values for `Cc1c(-c2ccc(O)c(Cl)c2)n(Cc2ccc(OCCN3CC(CF)C3)cc2)c2ccc(O)cc12` [Example 46, 2-(3-chloro-4-hydroxy-phenyl)-1-[[4-[2-[3-(fluoromethyl)azetidin-1-yl]ethoxy]phenyl]methyl]-3-methyl-indol-5-ol] are 0.03 nM and −97.8%.
As to `O=C(C1=C(c2ccc(O)cc2)CCc2cc(O)ccc21)c1ccc(OCCN2CC(CF)C2)cc1` [Example 32, (4-(2-(3-(Fluoromethyl)azetidin-1-yl)ethoxy)phenyl)(6-hydroxy-2-(4-hydroxyphenyl)-3,4-dihydronaphthalen-1-yl)methanone], the EC50 was determined as 0.19 nM and the “ER-alpha MCF7 HCS Sinf” value is recorded as −101%.
For `Oc1cccc([C@H]2Sc3cc(O)ccc3O[C@H]2c2ccc(OCCN3CC(CF)C3)cc2)c1` (racemic) [Example 31, 2-(4-(2-(3-(Fluoromethyl)azetidin-1-yl)ethoxy)phenyl)-3-(3-hydroxyphenyl)-2,3-dihydrobenzo[b][1,4]oxathiin-6-ol], it took 1.1 nM to reach a half-maximal effect (EC50) and the “ER-alpha MCF7 HCS Sinf” value is on record as −97%.
Regarding `C[C@@H](COc1ccc(C(=O)c2c(-c3ccccc3Cl)noc2-c2ccc(O)cc2)cc1F)N1CC[C@@H](CF)C1` [Example 76, [3-(2-chlorophenyl)-5-(4-hydroxyphenyl)isoxazol-4-yl]-[3-fluoro-4-[(2S)-2-[(3R)-3-(fluoromethyl)pyrrolidin-1-yl]propoxy]phenyl]methanone], the EC50 was found to be 0.091 nM and the “ER-alpha MCF7 HCS Sinf” value is −101%.
For `Oc1cccc([C@H]2Sc3c(ccc(O)c3F)O[C@H]2c2ccc(OCCN3CC(CF)C3)cc2)c1` [Example 58, (2S,3R)-5-fluoro-2-(4-(2-(3-(fluoromethyl)azetidin-1-yl)ethoxy)phenyl)-3-(3-hydroxyphenyl)-2,3-dihydrobenzo[b][1,4]oxathiin-6-ol] the same measures were 0.026 nM and −99.8%.
With `Cc1cc(-c2sc3cc(O)ccc3c2C(=O)c2ccc(OCCN3CC(CF)C3)cc2)ccc1F` [Example 36, (2-(4-fluoro-3-methylphenyl)-6-hydroxybenzo[b]thiophen-3-yl)(4-(2-(3-(fluoromethyl)azetidin-1-yl)ethoxy)phenyl)methanone], a half-maximal response (EC50) required 2.5 nM and the “ER-alpha MCF7 HCS Sinf” value is recorded as −97%.
For `Cc1c(-c2ccc(O)c(F)c2)n(Cc2ccc(OC[C@H](C)N3CC[C@@H](CF)C3)cc2)c2ccc(O)cc12` [Example 45, 2-(3-fluoro-4-hydroxy-phenyl)-1-[[4-[(2S)-2-[(3R)-3-(fluoromethyl)pyrrolidin-1-yl]propoxy]phenyl]methyl]-3-methyl-indol-5-ol] the same measures were 0.00632 nM and −97.5%.
Take `Oc1ccc2c(c1)O[C@H](c1ccc(OCCN3CC(CF)C3)cc1)C1=C2CCOc2ccc(O)cc21` [Example 77, (R)-8-(4-(2-(3-(fluoromethyl)azetidin-1-yl)ethoxy)phenyl)-2,8-dihydro-1H-benzo[2,3]oxepino[4,5-c]chromene-6,11-diol]: a half-maximal response (EC50) required 9.59 nM and the “ER-alpha MCF7 HCS Sinf” value is on record as −84.5%.

Values taken from US9845291B2, “Estrogen receptor modulators and uses thereof” (Genentech, Inc., priority 2014, dated 2017).
